Results reported in patent US20260250320A1, “LIPIDATED PEPTIDE INHIBITORS OF INTERLEUKIN-23 RECEPTOR” (Janssen Pharmaceutica NV, priority 2023, published 2026).
*1 amine or outer side, *2 acyl side, *3 side chain or, on linkers, in order; H or OH if unused. Where a SMILES comes first, the peptide text is derived from it. Bridges are numbered along the chain shown (N, C = ends). Side-chain parts run from the residue outwards. [ ]: non-standard residue; d: D form. The star is where a group is joined. Me3N+(CH2)2O(CH2)2O(CH2)2CO = C[N+](C)(C)CCOCCOCCC(=O)*; CH2CH2OCH2CH2OCH2CH2NMe3+ = C[N+](C)(C)CCOCCOCC*; Trp(7-Me) = Cc1cccc2c(C[C@H](N)C(=O)O)c[nH]c12; C18 diacid = O=C(O)CCCCCCCCCCCCCCCCC(=O)*; γGlu = O=C(O)[C@H](CCC(=O)[*:2])N[*:1]; 2Nal = N[C@@H](Cc1ccc2ccccc2c1)C(=O)O; X26 = C[N+](C)(CCN[*:1])CC(=O)[*:2]; PEG6 = NCCOCCOCCOCCOCCOCCOCCC(=O)O; 3Pal = N[C@@H](Cc1cccnc1)C(=O)O; Lys(Me) = CNCCCC[C@H](N)C(=O)O; NMeK = CN[C@@H](CCCCN)C(=O)O; Pen = CC(C)(S)[C@H](N)C(=O)O; Thp = NC1(C(=O)O)CCOCC1; X1 = C[N+](C)(C)CCCCC*; AEEA = NCCOCCOCC(=O)O; Sar = CNCC(=O)O

How the values were obtained:
[1] = test system: IL-23-stimulated phosphorylated STAT3 in peripheral blood mononuclear cells (PBMCs); experiment: PBMC pSTAT3 Assay; format: cell-based; conditions: PBMCs from healthy donors; 30 min preincubation with peptide; IL-23 5 ng/mL for 30 min; phospho-STAT3 by MSD
How it was run: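 Phospho-STAT3 quantified by Meso Scale assay in lysates of PBMCs exposed to IL-23 (5 ng/mL, 30 min, 37 °C) after 30 min peptide pretreatment. Cells were cryopreserved donor PBMCs activated 4 days with anti-CD3 plus IL-1β (100 ng/mL) and starved ~4 h; IC50 reported.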

IL-23R = molecular target: T1, IL-23R (Homo sapiens, UniProt Q5VWK5); experiment: IL23R Reporter Assay; format: cell-based; conditions: HEK293 cells containing IL-23R, IL-12Rβ1 and STAT-inducible firefly luciferase reporter; 10 ng/mL IL-23 (EC90); 5 h
T1 construct: HEK293 cells containing IL-23R, IL-12Rβ1 and a firefly luciferase reporter gene driven by a STAT-inducible promoter (Promega); host or cells: HEK293
T1 sequence (Q5VWK5 24-629): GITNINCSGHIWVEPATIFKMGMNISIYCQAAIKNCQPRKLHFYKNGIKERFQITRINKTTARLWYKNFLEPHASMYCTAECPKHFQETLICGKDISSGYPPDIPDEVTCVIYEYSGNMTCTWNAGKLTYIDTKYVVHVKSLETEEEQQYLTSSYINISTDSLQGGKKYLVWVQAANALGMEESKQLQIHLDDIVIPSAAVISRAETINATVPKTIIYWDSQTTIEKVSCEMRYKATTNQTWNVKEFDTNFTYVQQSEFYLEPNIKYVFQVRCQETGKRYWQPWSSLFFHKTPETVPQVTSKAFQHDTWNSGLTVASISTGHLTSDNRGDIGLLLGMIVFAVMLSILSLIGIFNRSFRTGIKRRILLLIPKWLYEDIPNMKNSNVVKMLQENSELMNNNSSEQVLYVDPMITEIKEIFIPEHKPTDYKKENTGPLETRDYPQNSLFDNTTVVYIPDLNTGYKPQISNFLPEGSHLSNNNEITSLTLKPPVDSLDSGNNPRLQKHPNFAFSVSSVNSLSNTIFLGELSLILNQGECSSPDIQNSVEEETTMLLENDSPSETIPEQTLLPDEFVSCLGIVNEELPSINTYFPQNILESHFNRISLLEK
How it was run: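 IC50 values were fitted with a 4-parameter Hill equation to luciferase signal, scaled between IL-23-only wells (0% inhibition) and 30 μM reference inhibitor (100%). The readout was a STAT-inducible reporter in IL-23R/IL-12Rβ1 HEK293 cells, stimulated with added 10 ng/mL IL-23 (EC90) for 5 h at 37° C and developed with BioGlo.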

Row | IC50 (IL-23R) [nM] | Structure (SMILES) | IC50 [1] [nM]
1 | < 50 | CC(=O)NCCCC[C@@H]1NC(=O)[C@H](Cc2c[nH]c3c(C)cccc23)NC(=O)[C@H]([C@@H](C)O)NC(=O)[C@H](CC(N)=O)NC(=O)[C@@H](NC(=O)[C@@H](CCCNC(=N)N)NC(=O)COCCOCCNC(=O)COCCOCCNC(=O)CC[C@H](NC(=O)CCCCCCCCCCCCCCCCC(=O)O)C(=O)O)C(C)(C)SSC(C)(C)[C@@H](C(=O)N[C@@H](Cc2ccc(OCCCCC[N+](C)(C)C)cc2)C(=O)N[C@@H](Cc2ccc3ccccc3c2)C(=O)NC2(C(=O)N[C@@H](CCC(=O)O)C(=O)N[C@@H](CC(N)=O)C(=O)N[C@@H](Cc3cccnc3)C(=O)N(C)CC(N)=O)CCOCC2)NC1=O [compound 83, HOC18gEPEG2PEG2CO-r-Pen(3)-N-T-7MeW-K(Ac)-Pen(3)-TMAPF-2Nal-THP-E-N-3Pya-Sar-CONH2] ({C18 diacid-γGlu-AEEA-AEEA}-[dR][Pen]NT[Trp(7-Me)]K(Ac)[Pen]Y(X1)[2Nal][Thp]EN[3Pal][Sar]-NH2; disulfide 2-7) | < 0.5
2 | < 50 | Cc1cccc2c(C[C@@H]3NC(=O)[C@H]([C@@H](C)O)NC(=O)[C@H](CC(N)=O)NC(=O)[C@@H](NC(=O)[C@@H](CCCNC(=N)N)CC(=O)COCCOCCNC(=O)COCCOCCNC(=O)CC[C@H](NC(=O)CCCCCCCCCCCCCCCCC(=O)O)C(=O)O)C(C)(C)SSC(C)(C)[C@@H](C(=O)N[C@@H](Cc4ccc(OCCN)cc4)C(=O)N[C@@H](Cc4ccc5ccccc5c4)C(=O)NC4(C(=O)N[C@@H](CCC(=O)O)C(=O)N[C@@H](CC(N)=O)C(=O)N[C@@H](Cc5cccnc5)C(=O)N(C)CC(N)=O)CCOCC4)NC(=O)[C@H](CCCCN(C)C(=O)CCCCCOCC[N+](C)(C)C)NC3=O)c[nH]c12 [compound 84, HOC18gEPEG2PEG2CO-r-Pen(3)-N-T-7MeW-K(NMecPEG3a)-Pen(3)-AEF-2Nal-THP-E-N-3Pya-Sar-CONH2] | < 0.5
3 | < 50 | CC(=O)N(C)CCCC[C@@H]1NC(=O)[C@H](Cc2c[nH]c3c(C)cccc23)NC(=O)[C@H]([C@@H](C)O)NC(=O)[C@H](CC(=O)N(C)C)NC(=O)[C@@H](NC(=O)CCOCCOCC[N+](C)(C)C)C(C)(C)SSC(C)(C)[C@@H](C(=O)N[C@@H](Cc2ccc(OCCOCCOCC[N+](C)(C)C)cc2)C(=O)N[C@@H](Cc2ccc3ccccc3c2)C(=O)NC2(C(=O)N[C@@H](CCCCN(C)C(C)=O)C(=O)N[C@@H](CC(N)=O)C(=O)N[C@@H](Cc3cccnc3)C(=O)N(C)[C@@H](CCCCNC(=O)CCOCCOCCOCCOCCOCCOCCNC(=O)CC[C@H](NC(=O)CCCCCCCCCCCCCCCCC(=O)O)C(=O)O)C(N)=O)CCOCC2)NC1=O [compound 88, cPEG3aCO-Pen(3)-N(N(Me)2)-T-7MeW-K(NMeAc)-Pen(3)-APEG3F-2Nal-THP-K(NMeAc)-N-3Pya-NMeK(PEG6gEC18OH)-CONH2] ({Me3N+(CH2)2O(CH2)2O(CH2)2CO}-[Pen]D(NMe2)T[Trp(7-Me)][Lys(Me)](Ac)[Pen]Y(CH2CH2OCH2CH2OCH2CH2NMe3+)[2Nal][Thp][Lys(Me)](Ac)N[3Pal][NMeK]([PEG6-γGlu-C18 diacid])-NH2; disulfide 1-6) | < 0.5
4 | < 50 | CC(=O)N(C)CCCC[C@@H]1NC(=O)[C@H](Cc2c[nH]c3c(C)cccc23)NC(=O)[C@H]([C@@H](C)O)NC(=O)[C@H](CC(=O)N(C)C)NC(=O)[C@@H](NC(=O)COCCOCCNC(=O)C[N+](C)(C)CCNC(=O)COCCOCCNC(=O)CC[C@H](NC(=O)CCCCCCCCCCCCCCCCC(=O)O)C(=O)O)C(C)(C)SSC(C)(C)[C@@H](C(=O)N[C@@H](Cc2ccc(OCCOCCOCC[N+](C)(C)C)cc2)C(=O)N[C@@H](Cc2ccc3ccccc3c2)C(=O)NC2(C(=O)N[C@@H](CCCCN(C)C(C)=O)C(=O)N[C@@H](CC(N)=O)C(=O)N[C@@H](Cc3cccnc3)C(=O)N(C)CC(=O)N(C)C)CCOCC2)NC1=O [compound 89, HOC18gEPEG2SP6PEG2CO-Pen(3)-N(N(Me)2)-T-7MeW-K(NMeAc)-Pen(3)-APEG3F-2Nal-THP-K(NMeAc)-N-3Pya-Sar-CON(Me)2] ({C18 diacid-γGlu-AEEA}-[X26][AEEA][Pen]D(NMe2)T[Trp(7-Me)][Lys(Me)](Ac)[Pen]Y(CH2CH2OCH2CH2OCH2CH2NMe3+)[2Nal][Thp][Lys(Me)](Ac)N[3Pal][Sar]-NMe2; disulfide 3-8) | < 0.5
